According to patent US8680076B2, “Methods of treatment, improvement and prevention using haloaryl substituted aminopurines” (Signal Pharmaceuticals, LLC, priority 2010, dated 2014):
“Also recorded” adds a separate entry of the source.

Tested on: CD-IGS rats
Assay: Rat model of excisional wound healing
Format: in vivo
Experimental: Male CD-IGS rats (Strain code 001; n=32-52 per experiment) were obtained from Charles River Laboratories at a body weight of 175-195 g. Rats were housed in regular shoebox cages and allowed to become acclimated for a minimum of 1 week. Rats were fed Harlan Teklad (No. 7001) 4% mouse/rat diet and water ad libitum and were maintained on a 12-hour light/dark cycle.
Suspensions of Compound JNKi-1 were prepared in aqueous 0.5% CMC and 0.25% Tween-80. The formulations were homogenized using a TEFLON® pestle and mortar (Potter-Elvehjem tissue grinder). Vehicle (aqueous solution of 0.5% carboxymethylcellulose, and 0.25% Tween-80) and test article compounds were dosed at a volume of 5 mL/kg. Groups of rats (n=4-8/group) were dosed orally with vehicle, Dexamethasone (0.5 mg/kg) or Compound JNKi-1 (10 mg/kg, 30 mg/kg or 60 mg/kg) daily throughout the study starting 4 days prior to the procedure and continuing for up to […]. Compound JNKi-1 treated groups and the respective vehicle control group were dosed twice daily (bid) with an 8 hr separation between the doses. Dexamethasone treated animals and the respective vehicle control group were dosed once daily (qd) for the duration of the study.
Rats were anesthetized by inhaled isoflurane and the dorsal area was shaved and swabbed with 70% alcohol. Two points were marked 5.5 and 8.5 cm from the base of the skull along the midline. Four further points were marked 1 cm at either side of the midline, two at each of the marked points. These delineated the centers of four excisional wounds. The biopsy punch (6 mm diameter) was aligned vertically over the center of a mark and the epidermis, dermis and panniculus carnosus pierced by applying pressure and twisting at the same time. The skin plug was then removed. This was repeated for the remaining wounds (FIG. 15). The animal was then allowed to recover. All animals were housed singly during the experiment. Rats were monitored twice a day for the first 24 hours following the procedure and then daily until the end of the study. Body weights were recorded two or three times per week. Animals were sacrificed via CO2 asphyxiation at various time-points (day 1, 5, 10 or 14) following wounding.
Each wound size was measured using an electronic digital caliper and the percent of wound remaining open was calculated relative to the initial wound size recorded on day 0 (day of wounding procedure). Four values were averaged for each animal (four wounds on each rat). Measurements were taken at different time-points throughout the study.
Wounds and 2 mm of surrounding tissue were excised using an 8 mm biopsy punch. Wounds were harvested on days 1, 5, 10 and 14 following the procedure. Tissues were fixed in neutral buffered formalin for 3 h then transferred to 100% ethanol. Tissues were paraffin-embedded and four μm cross sections were cut and mounted on poly-lysine slides and stored in slide boxes at room temperature.
One slide for each specimen was stained for H&E to assess granulation-tissue formation and re-epithelialization of the wound gap.
Samples collected on day 10 and 14 were stained with Trichrome Stain (Masson) Kit (Sigma, HT15) to evaluate collagen deposition and remodeling.
Tissue sections were deparaffinized and hydrated to deionized (DI) water. Sections were incubated in preheated Bouin' Solution (Sigma, HT10-132) at 56° C. overnight and then thoroughly rinsed in tap water. Sections were stained in Weigert's Iron Hematoxylin solution (Sigma, HT10-79) for 15 min, washed, and counterstained with Biebrich Scarlet Acid Fuchsin solution. After washing, sections were incubated with Phosphotungstic-Phosphomolybdic acid solution for 15 min and then stained with Aniline Blue solution. Sections were dehydrated and cleared in xylene.
Wound healing was evaluated on day 10 and day 14 after the procedure. H&E sections were scored for re-epithelialization using the following criteria: […]

[1] = 60 mg/kg bid, Studies A and B combined

## O[C@H]1CC[C@H](Nc2ncc3nc(Nc4c(F)cc(F)cc4F)n([C@H]4CCOC4)c3n2)CC1 [JNKi-1, 4-((9-((3S)-tetrahydro-3-furanyl)-8-((2,4,6-trifluorophenyl)amino)-9H-purin-2-yl)amino)-trans-cyclohexanol]
60 mg/kg b.i.d
  wound healing (wound size) in words: delay in wound healing was observed
60 mg/kg b.i.d, n=3 studies
  delay in wound healing: 27%
60 mg/kg bid
  healing at day 14: fully healed
[1]
  rats completely healed by day 10 (healing score): 5 out of 14
  rats with both incomplete re-epithelialization and collagen remodeling at day 10: 3 rats
  rats with incomplete new epidermis at day 10: two
  rats with only partial collagen remodeling at day 10: 4 rats
60 mg/kg, day 1 post wounding
  neutrophils recruited into the wounds (MPO IHC) versus controls: did not affect inflammatory cell infiltration; also recorded: comparable
60 mg/kg, day 5 post wounding
  myofibroblast migration into the wound gap (α-SMA IHC): reduced myofibroblast migration; also recorded: few myofibroblasts migrating at the wound edges
30 or 10 mg/kg bid
  wound size versus vehicle: no difference
Study C, 10 mg/kg
  healing score versus vehicle control, day 10: No significant effect
Study C, 30 mg/kg, day 10
  rats with both incomplete re-epithelialization and collagen remodeling: 5 out of 8
Study C, 60 mg/kg
  rats completely healed by day 10: None
Study C, 60 and 30 mg/kg
  healing score versus vehicle control, day 10: significant delay in healing
All treated groups
  time of complete skin repair post wounding: ≤ 14 days
